According to patent US7718768B2, “Biologically active peptide [sequence]” (CMS Peptides Patent Holding Company Limited, priority 2001, dated 2010):
Marks after values point to notes of the source that are not given here. No end group written: not given here.

Legend:
[1] = body weight of rats fed high nutrition diet (obesity induced by over-feeding); assay type: in vivo, Sprague-Dawley (SD) rats
Method: Sprague-Dawley (SD) rats, weighing 145±10 g, were supplied by the Center of Experimental Animal of Guangzhou University of Traditional Chinese Medicine, PR China (certificate No.: 2000A019). Peptides were custom synthesized (of L-amino acids origin) by American Peptide Company, Inc., USA, and were diluted to 10 μg/ml in normal saline. The high and normal nutrition diets were prepared in compliance with the guideline for pre-clinical research of anti-obesity drug, issued by SDA (State Drug Administration), PR China^[1].
Healthy rats were randomized into the experiment, positive control, and negative control groups. 10 rats per group, half male and half female. The experiment group of rats was fed with high nutrition diet for 5 weeks with simultaneous intramuscular injection of 300 μg/kg/day peptide, once per day. Positive control group received the same high nutrition diet but placebo saline injection, while negative control group, used to proof successful establishment of obesity model, received normal nutrition diet and placebo saline injection. After 5 weeks treatment, injection was stopped and the same diet was maintained for another 3 weeks. The rats were weighed at once per week interval. Behaviour of the rats was also observed.
The data were presented as mean±standard deviation. Paired t test or single-factor ANOVA was used for inter and intra group comparison. Statistical significance cut-off was at P≦0.05.

[2] = test system: Duck Hepatitis B Virus (DHBV); assay: Chongqing duck hepatitis B model, serum DHBV DNA by dot-blot hybridization; assay type: in vivo, Chongqing ducks; conditions: CMS001 50 μg/kg/day i.p., lamivudine 50 mg/kg/day oral

PSIVGRPRHQGVM [CMS015]
body weight ([1]; Pre-treatment, Female n = 5, 300 μg/kg/day intramuscular): 129.2 ± 3.3 g
body weight ([1]; Pre-treatment, Male n = 5, 300 μg/kg/day intramuscular): 145.6 ± 8.5 g
body weight ([1]; Week 1, Female, 300 μg/kg/day intramuscular): 157.8 ± 8.3 g
body weight ([1]; Week 1, Male, 300 μg/kg/day intramuscular): 183.8 ± 10.6 g
body weight ([1]; Week 2, Female, 300 μg/kg/day intramuscular): 176.0 ± 11.2 g
body weight ([1]; Week 2, Male, 300 μg/kg/day intramuscular): 220.6 ± 12.2 g
body weight ([1]; Week 3, Female, 300 μg/kg/day intramuscular): 196.0 ± 10.5 g
body weight ([1]; Week 3, Male, 300 μg/kg/day intramuscular): 239.0 ± 16.0 g
body weight ([1]; Week 4, Female, 300 μg/kg/day intramuscular): 212.0 ± 13.5 g
body weight ([1]; Week 4, Male, 300 μg/kg/day intramuscular): 258.2 ± 18.1 g
body weight ([1]; Week 5 (last week of injection), Female, 300 μg/kg/day intramuscular): 221.4 ± 13.2 g
body weight ([1]; Week 5 (last week of injection), Male, 300 μg/kg/day intramuscular): 268.8 ± 17.7 g
body weight ([1]; Week 6 (injection stopped after week 5), Female): 235.6 ± 16.3 g
body weight ([1]; Week 6 (injection stopped after week 5), Male): 299.4 ± 21.2 g
body weight ([1]; Week 7 (injection stopped after week 5), Female): 242.2 ± 18.8 g
body weight ([1]; Week 7 (injection stopped after week 5), Male): 310.4 ± 25.9 g
body weight ([1]; Week 8 (injection stopped after week 5), Female): 252.8 ± 22.5 g
body weight ([1]; Week 8 (injection stopped after week 5), Male): 337.4 ± 30.6 g

PTTKTYFPHF [CMS001]
Serum DHBV DNA level ([2]; Day 0 (before treatment), Mean ± Standard Deviation): 21 ± 18 10^3 units
Serum DHBV DNA level ([2]; Day 7 of treatment): 11 ± 13 10^3 units
Serum DHBV DNA level ([2]; Day 14 of treatment): 20 ± 18 10^3 units
Serum DHBV DNA level ([2]; Day 21 of treatment): 14 ± 14 10^3 units
Serum DHBV DNA level ([2]; Day 28 (end of 4 weeks treatment)): 5 ± 3* 10^3 units
Serum DHBV DNA level ([2]; Day 35 (one week after termination of treatment)): 18 ± 16 10^3 units
